Legend:
[1] = test system: Neutrophils; test: Neutrophil apoptosis by oligonucleosomal DNA fragments after 2-MOE oligonucleotides; type: cell-based, human; details: cytokine alone
Protocol: Neutrophil apoptosis is assessed by oligonucleosomal DNA fragmentation (Dibbert et al.(1999) Proc. Natl. Acad. Sci. USA 96, 13330-13335; Hebestreit et al. (1998), J. Exp. Med. 187, 415-425) according to Nicoletti et al. ((1991) J. Immunol. Meth. 139, 271-279). Briefly, cells are resuspended in hypotonic fluorochrome solution containing 50 μg/ml propidium iodide (Sigma Buchs, Switzerland), 0.1% sodium citrate (Sigma) and 0.1% (vol/vol) Triton-X 100 (Sigma), incubated at 4° C. for 10 h, and analyzed by flow cytometry (FACScan, Becton Dickinson, Heidelberg, Germany).
The 20-mer first generation antisense oligonucleotide 4003 targeting the survivin mRNA has been described above. The second generation 2′-O-methoxy-ethoxy (2′-MOE) gapmer version of 4003 (as) and its 3-base mismatch sequence control (ms) are synthesized using an Applied Biosystems 394B automated DNA synthesizer as described (De Mesaeker et al. (1995) Acc. Chem. Res. 28, 366-374). Sequences are as follows: antisense survivin, cscscsasgsCsCsTsTsCsCsAsGsCsTscscststsg; mismatch survivin, cscstsasgsCsCsTsTsCsCsAsGsGsTscscstsasg. Small letters refer to 2′-O-(2-methoxy)-ethyl-modified nucleotides, capital letters to DNA, and “s” refers to phosphorothioate linkages. Cells isolated and cultured as described above are treated with survivin antisense oligonucleotides (as) or survivin mismatch control oligonucleotides (ms) at the indicated concentrations. In the experiments in which GM-CSF (50 ng/ml; kind gift of T. Hartung, University of Konstanz, Konstanz, Germany) or G-CSF (25 ng/ml; PeproTech, BioConcept, Allschwil, Switzerland) are added, the oligonucleotides are given 2 h before addition of cytokines.
Values are means ±S.E.M. of four independent experiments. *, p<0.05; **, p<0.01; ***, p<0.001.

[2] = test system: Survivin mRNA; test: LifeGrid microarray of Survivin transcripts in neutrophils; type: cell-based, human; details: between 2 and 6 h following addition of GM-CSF
Protocol: Primary human neutrophils are isolated and purified from peripheral blood of normal healthy individuals using standard techniques. Neutrophils are resuspended in serum containing culture medium together with GM-CSF (50 U) at a concentration of 2×10^6/ml, and cultured for 0 h (control), 2 h, 4 h and 6 h at 37° C. Total RNA is then prepared from both groups using acid phenol/guanidine isothiocyanate extraction (RNAzol B; Biogenesis), or RNeasy RNA preparation kits (Qiagen). Any contaminating genomic DNA is removed by DNase treatment (DNase I, Gibco-BRL). […]
This example describes the use of a STORM Phosphoimager to quantitatively image positive signals across the filter arrays. […]
The captured image file is then analysed using software such as Array Vision (Imaging Research Inc.; See FIG. 5). […] This program contains facilities for spot detection and quantification, and background detection and quantification. […] As the data is imported to the database, a Normalisation factor is calculated and the sDENs values modified accordingly. […] A normalization factor may be derived from Linear Regression calculated by reference to housekeeping genes. Alternatively, the Global Mean is calculated as the average of the sDens values across all of the arrays to be compared and a normalisation factor is then derived by division of the overall spot density with the Global Mean value. […]

## Granulocyte macrophage colony-stimulating factor [GM-CSF]
[1]
  DNA-fragmentation of neutrophils with cytokine: prevent DNA-fragmentation
[2]
  Expression of Survivin (microarray fold change): up-regulated
